Earlier results on five compounds are cited in patent US20240226024A1 (Empros Pharma AB, priority 2021, published 2024).

The conditions of data set [1]: for Placebo adjusted reduction of body weight: oral administration for 6 months; for Additional weight loss relative to placebo at one year: on average.
For data set [2] the following is noted: for Fraction of the dose absorbed: oral administration.
Test in data set [3]: not given
The source holds these as a separate data set.

Structures are written as SMILES. Some results are limits rather than exact numbers.

In the case of `C[C@H]1O[C@H](O[C@H]2[C@H](O)[C@@H](O)[C@@H](O[C@H]3[C@H](O)[C@@H](O)C(O)O[C@@H]3CO)O[C@@H]2CO)[C@H](O)[C@@H](O)[C@@H]1N[C@H]1C=C(CO)[C@@H](O)[C@H](O)[C@H]1O` (stereo partly drawn) [acarbose, O-4,6-Dideoxy-4-[[(1S,4R,5S,6S)-4,5,6-trihydroxy-3-(hydroxymethyl)cyclohex-2-enyl]amino]-α-D-glucopyranosyl-(1→4)-O-α-D-gluco-pyranosyl-(1→4)-D-glucopyranose], the “Placebo adjusted reduction of body weight” value in data set [1] is “approx. 0.5%”.

On to `C[C@H]1CNCCc2ccc(Cl)cc21` [lorcaserin], for which, in data set [1] (human, in vivo), the “Decrease of body weight more than placebo” value was “about 3.2 kg” and the “Decrease of body weight more than placebo, % of initial body weight” value is recorded as “about 3.2%”. In addition, in data set [1], the “Additional weight loss relative to placebo at one year” value was roughly 3%.

Usually log P stands for the decadic logarithm of the partition coefficient of the neutral form, usually between octanol and water. `CCCCCCCCCCC[C@@H](C[C@@H]1OC(=O)[C@H]1CCCCCC)OC(=O)[C@H](CC(C)C)NC=O` [orlistat, (S)-((S)-1-((2S,3S)-3-Hexyl-4-oxooxetan-2-yl)tridecan-2-yl) 2-formamido-4-methylpentanoate]: the “Fraction of the dose absorbed” value in data set [2] is less than 3%. The Plasma exposure in data set [2] (oral, conventional dosage form) was less than 5 ng/mL. For the same compound, where the note is “6-month trial”, the “Participants who reported faecal incontinence, similar 6-month trial” value is listed as 5%. Besides, under “diarrhea, oily spotting and fecal urgency”, the “Patients who complain about GI side-effects in clinical trials” value is given as no less than 25%. Further, the “Participants who reported faecal incontinence, trials of longer duration” value (trials of longer duration) was “approximately 18%”. In addition, the “Relative weight loss, best case scenario” value in data set [1] (conventional dosage form, placebo 6%) is on record as 10%. Also, the “Approximate relative weight loss, conventional dosage form” value in data set [1] (conventional dosage forms) is 2-3%. Further, in data set [1], the “Additional weight loss relative to placebo at one year” value is roughly 3% and the “Placebo adjusted reduction of body weight” value is 2-3%. Besides, in data set [3], the “Solubility in water (in words)” value was “practically insoluble in water”, the Water solubility entry is “less than 0.001 g/ml” and the “log P” value is reported as 8.5.

For `OCCN1C[C@H](O)[C@@H](O)[C@H](O)[C@H]1CO` [Miglitol, miglitol], the “Fraction of the dose absorbed” value in data set [2] is listed as 100%.

With `OCC(CO)N[C@H]1C[C@](O)(CO)[C@@H](O)[C@H](O)[C@H]1O` [voglibose], the “Fraction of the dose absorbed” value in data set [2] is “only negligibly absorbed”.
